Here are results for 13 compounds from patent US9700499B2, “Antimicrobial compositions” (GIVAUDAN SA, priority 2005, dated 2017).

In assay [1] the test system is Aspergillus niger ATCC 16404 spores. The experiment in a line: Sporicidal effect of test compounds and preservatives in a cosmetic cream. In kind it is cell-based. To be noted: for Enhancing effect in the cosmetic cream in presence of phenoxyethanol: 0.2% test compound with phenoxyethanol. How it is done:
A cosmetic cream (pH 5.5) for application to the human skin is formulated as follows (in % w/w): […]
Glyceryl-monostearate, Sweet almond oil, Cetyl-stearyl-alcohol and Glyceryl dilaurate are melted at 80° C. Xanthan gum is dispersed into glycerine. Arginine is dissolved in water and heated to 75° C. The Xanthan gum-glycerin suspension is added to the heated water phase, the heated oil phase is added and the suspension is stirred at 300 rpm for 10 min whilst being cooled down slowly. Finally, a homogeneous emulsion is made with a high speed homogenizer at 5000 rpm.
Test samples of cream contain different amounts of preservatives and/or preservative enhancer. The preservative and preservative enhancer is added to an aliquot of 10 g of the cream in 50 ml tubes to a concentration (w/w) of 0.1-0.5% as shown in the table below. After addition of the preservative/preservative enhancer, the cream is thoroughly mixed to achieve a homogeneous distribution.
After 1-3 days of equilibration of the cream (storage at room temperature to achieve a homogenous partitioning of compounds between oil and water phase), to each sample 100 μl of a spore suspension of Aspergillus niger ATCC 16404 containing 3×10^7 spores/ml (prepared as described in example 1) is added. After regular test intervals, samples of 1 g cream are removed and added to 20 ml of a neutralizer solution containing 0.2% lecithin, 2% Tween 80 and 0.5% NaCl. These dilutions are vigorously shaken for 10 min until the cream is dissolved, and then aliquots of this solution are spread plated on potato dextrose agar containing 0.2% Tween 80. After 48 h to 72 h the number of surviving colony forming units (and therefore surviving spores) are counted.
The sporidical effect in cream (prepared as described in example 2) is compared when using the test compounds alone or in combination with phenoxyethanol, benzyl alcohol or 2-Phenylethanol.
The experiments described in example 2-4 are performed with varying concentrations of test compound and preservative as indicated in Table 5.

For assay [2] the test system is unchanged. The experiment in a line: Sporicidal effect of test compounds in water. In kind it is cell-based. To be noted: for Reduction factor / Spores/ml: 0.1% test compound in water; for Reduction factor: after 7 days, count of negative control divided by count of test compound; for Spores/ml: spore count after 7 days; for Sporicidal effect (reduction of spore counts) in water: test compound alone in water at 0.1%. How it is done:
Aspergillus niger ATCC 16404 spores are added to water to obtain a density of 3×10^5 spores/ml. In order to prepare the spores, the test strain is grown for 5 days on potato dextrose agar at room temperature. The spores are harvested with a solution containing 0.1% Tween 80, peptone 0.1% and NaCl 0.85% and the spore concentration is adjusted to the density indicated above.
Test compounds are dissolved in dipropyleneglycol to a concentration of 20%.
These stock solutions are added to 10 ml aliquots of the spore suspension to obtain a final concentration of the test compounds of 0.1%. The sporicidal effect is shown by a reduction of spore counts after 7 days.
The reduction factor is determined as follows. Aliquots of the above prepared suspension of microorganisms (here: spore suspension prepared as described above) are plated on a suitable agar medium (see above) and the developing colonies are counted both for samples with test compound and for a negative probe (water). The count of the negative control is divided by the count of the test compound and thereby the reduction factor is determined. A negative control (water) accordingly has a reduction factor of 1 (no effect on the microorganism).

The mark [3] stands for this setting: test compound (0.1% where given) with Phenoxyethanol 0.5% (Table 3).
Setting [4] is: test compound (0.1% where given) with Phenoxyethanol 0.5%, 7 d (Table 3).
Setting [5] is: test compound alone (0.1% where given), no preservative (Table 3).
[6] abbreviates: test compound alone (0.1% where given), no preservative, 7 d (Table 3).
The mark [7] stands for this setting: 0.1% test compound and 0.5% phenoxyethanol (Table 2).
The mark [8] stands for this setting: 0.1% test compound and 0.5% phenoxyethanol, 7 d (Table 2).
[9] abbreviates: 0.2% test compound and 0.5% phenoxyethanol (Table 2).
Setting [10] is: 0.2% test compound and 0.5% phenoxyethanol, 7 d (Table 2).

Turning to `O=Cc1cc(O)cc(O)c1` [3,5-dihydroxybenzaldehyde], the “Spores/ml after 7 d” value in assay [1] (setting [3]) is on record as <100 Spores/ml; in assay [1] (setting [5]), 1 × 10^4 Spores/ml. In addition, the Reduction factor in assay [1] (setting [4]) was >1040; in assay [1] (setting [6]), 10.
In the case of `COc1cccc(C=O)c1` [3-methoxybenzaldehyde], the “Spores/ml after 7 d” value in assay [1] (setting [7]) is <100 Spores/ml. Further, the Reduction factor in assay [1] (setting [8]) is reported as >737.
As to `CC(CC=O)CCc1ccccc1` (centres unmarked) [Mefranal, 3-methyl-5-phenylpentanal, reference compound], in assay [1] (setting [9]), the “Spores/ml after 7 d” value is listed as 3.12 × 10^4 Spores/ml. In addition, in assay [1] (setting [10]), the Reduction factor is on record as 1.6. In addition, the “Enhancing effect in the cosmetic cream in presence of phenoxyethanol” value in assay [1] is listed as “do not show an enhancing effect”. Also, in assay [2], the Reduction factor is 63, the Spores/ml is reported as 4 × 10^3 Spores/ml and the “Sporicidal effect (reduction of spore counts) in water” value is “significant sporicidal effect”.
On to `O=Cc1ccc2c(c1)OCO2` [Heliotropine], for which the “Spores/ml after 7 d” value in assay [1] (setting [7]) is <100 Spores/ml. Further, the Reduction factor in assay [1] (setting [8]) is >737.
`CC(C)c1ccc(CO)cc1` [Cuminic alcohol, reference compound]: in assay [2], the Reduction factor is listed as <2 and the Spores/ml is >1.2 × 10^5 Spores/ml.
On to `COc1ccc(C=O)cc1` [4-methoxybenzaldehyde], for which the “Spores/ml after 7 d” value in assay [1] (setting [7]) is on record as <100 Spores/ml; in assay [1] (setting [9]), <100 Spores/ml; in assay [1] (setting [3]) it was <100 Spores/ml; in assay [1] (setting [5]), 2.8 × 10^3 Spores/ml. Also, the Reduction factor is reported as >737 in assay [1] (setting [8]); >737 in assay [1] (setting [10]); >1040 in assay [1] (setting [4]); 37.1 in assay [1] (setting [6]); 5 in assay [2]. Besides, in assay [1] (0.1% test compound with phenoxyethanol, complete killing of spores within 7 days), the “Enhancing activity in cream” value is “excellent enhancing activity”. Further, in assay [2], the Spores/ml is listed as 4.68 × 10^4 Spores/ml. Also, the “Sporicidal effect (reduction of spore counts) in water” value is “No significant reduction of spore counts” in assay [2] and “no significant sporicidal effect” in assay [2] (listed as 4-methoxy-benzaldehyde).
For `O=Cc1ccccc1` [Benzaldehyde, reference compound], the “Spores/ml after 7 d” value in assay [1] (setting [7]) was <100 Spores/ml. The Reduction factor in assay [1] (setting [8]) is >737.
As for `C=CCCCCCCCCO` [9-decen-1-ol, reference compound], in assay [1] (setting [9]), the “Spores/ml after 7 d” value is on record as 2.44 × 10^4 Spores/ml. Besides, the Reduction factor in assay [1] (setting [10]) is given as 2.1. The “Enhancing effect in the cosmetic cream in presence of phenoxyethanol” value in assay [1] was “do not show an enhancing effect”. Moreover, in assay [2], the Reduction factor is 23, the Spores/ml is reported as 1.1 × 10^4 Spores/ml and the “Sporicidal effect (reduction of spore counts) in water” value was “significant sporicidal effect”.
With `Cc1ccc(C=O)cc1` [4-methylbenzaldehyde], the “Spores/ml after 7 d” value in assay [1] (setting [7]) is <100 Spores/ml. In addition, the Reduction factor in assay [1] (setting [8]) is on record as >737.
For `COc1cc(O)ccc1C=O` [4-hydroxy-2-methoxy-benzaldehyde], the “Spores/ml after 7 d” value in assay [1] (setting [3]) is reported as <100 Spores/ml; in assay [1] (setting [5]) it was 2.08 × 10^4 Spores/ml. In addition, the Reduction factor in assay [1] (setting [4]) is recorded as >1040; in assay [1] (setting [6]) it was 5.
In the case of `O=Cc1cccc(O)c1` [3-hydroxybenzaldehyde], the “Spores/ml after 7 d” value in assay [1] (setting [7]) is recorded as <100 Spores/ml. In assay [1] (setting [8]), the Reduction factor was >737.
For `OCCc1ccccc1` [2-Phenylethanol, reference compound], the “Spores/ml after 7 d” value in assay [1] (preservative 0.5% alone, no test compound (Table 3)) is recorded as 4.2 × 10^4 Spores/ml. Moreover, in assay [1] (preservative 0.5% alone, no test compound, 7 d (Table 3)), the Reduction factor worked out at 2.5.
For the compound `COc1cc(C=O)ccc1O` [Vanilline], the “Spores/ml after 7 d” value in assay [1] (setting [7]) was <100 Spores/ml; in assay [1] (setting [3]), <100 Spores/ml; in assay [1] (setting [5]) it was 1 × 10^4 Spores/ml. Moreover, the Reduction factor in assay [1] (setting [8]) is listed as >737; in assay [1] (setting [4]), >1040; in assay [1] (setting [6]), 10.4.
